# Reference: article PMC9925730, “Controlled sequential in situ self-assembly and disassembly of a fluorogenic cisplatin prodrug for cancer theranostics” (Nature Communications, 2023)
# “And” between values parts separate entries of the source, which are not always exact repeats. Equal entries are not always repeated.
# Test system: HeLa cells
# Experiment: Depletion of intracellular GSH
# Format: cell-based, human
# Parameters: key to Intracellular GSH level after treatment (Supplementary Table S2): GSH content in fmol/cell
# Conditions: for [GSH] after treatment / [GSH] depletion: HeLa cells, Pt drug 2 h, then fresh medium 24 h; for Intracellular GSH level after treatment (Supplementary Table S2): blank (before treatment) mean 12.88; for GSH-depletion: relative to blank (before treatment)
# Method: Supplementary Tables 1-13 Supplementary Table 1. ICP-OES analysis of Pt in HeLa cells. a Pt drugs Pt element per cell Percentage of Pt element (fmol/cell) b taken up by cells (%) c P-CyPt 24.60 ± 3.5 36.9 ± 5.3 […] 1.73 ± 0.2 2.6 ± 0.3 CDDP 0.73 ± 0.09 1.1 ± 0.1 P-CyPt + Na3VO4 0.07 ± 0.01 0.1 ± 0.01 a HeLa cells were untreated or pre-treated with Na3VO4 (10 mM) for 20 min and then incubated with indicated Pt drug (10 μM) for 1 h. Then, the cells were trypsinized, collected, and the cell numbers were counted and digested with trace metal concentrated HNO3 (65~70%) and HCl (36~38%). The amount of Pt element was determined by ICP-OES. b Pt per cell represents the average amount of Pt element in one HeLa cell, which was calculated by dividing the total amount of Pt element in cells by the cell number. c Percentage of Pt taken up by cells was calculated by dividing the total amount of Pt elements in cells by the amount of Pt drugs added. Values denote mean ± s.d. (n = 3 independent experiments). Supplementary Table 2. Comparison of the intracellular GSH in HeLa cells before and after incubation with different Pt drugs. a Pt [GSH] before treatment [GSH] drugs (fmol/cell) [GSH] after treatment (fmol/cell) depletion b CDDP 11.81 ± 1.7 8.3% […] 11.71 ± 1.6 9.1% 12.88 ± 1.5 P-CyPt 8.07 ± 0.8 37.3% a HeLA cells were untreated or treated with different Pt drugs for 2 h. The cells were washed with PBS for three times, and replaced with fresh medium and incubated for another 24 h. After that, the cells were trypsinized, centrifuged and counted. The cell pellets were dispersed, lysed via sonication, and ultracentrifuged to obtain supernatant. The GSH content (nPt) in the supernatant was measured by a reported detection method. The content of GSH per cell ([GSH]) before and after treatment (nB and nA) was calculated according to the formula: […] GSH depletion: The GSH depletion (Δ) was calculated according to the formula: %Δ = (nB - nA)/ nB. Values denote mean ± s.d. (n = 3 independent experiments). 27 page 45: DNA […]-stained with 5x loading buffer in the TAE buffer and the resultant gel visualized by Gel DocTM XR+ (Bio-Rad) system. Depletion of intracellular GSH. HeLa cells (2×10^5 cells/well) in 2 mL DMEM medium were seeded onto 6-well plates and allowed to grow overnight. Then cells were then treated with […], or CDDP (10 μM), respectively. After that, cells were digested with trypsin and washed with PBS for 3 times. Then, cell pellets were dispersed in pre-chilled extraction solution (1 mL, 0.1 M potassium phosphate buffer containing 0.1% Triton, 0.6% sulfosalicylic acid, and 5 mM EDTA, pH 7.4) and sonicated with an US probe on ice for 2 min. To ensure that cells were lysed completely, the solution was further frozen and thawed twice. Finally, the solution was centrifuged at 3000 g at 4 °C for 4 min. The supernatant was taken to measure the GSH content using commercial GSH detection kit, according to a reported procedure (Nat. Protoc. 2006, 1, 3159). MCTS imaging and cytotoxicity. The three-dimensional multicellular spheroids (MCTS) of HeLa were cultured according to the method previously described (Nat. Protoc. 2009, 4, 309) with minor modifications. Briefly, a well of 96-well plates was covered by 50 μL of hot agarose solution (1.5 w/v %) and then cooled to form a layer of agaropectin. HeLa cells were seeded to the agaropectin-coated well at a density of 2×10^3 cells/well, and incubated to grow into spheroids. DMEM medium was replaced with fresh medium every 2 days until the diameter of tumor spheroids grows near 400 μm. Then, the MCSs were incubated with 10 μM P-CyPt or […] for 1 h, washed with PBS for 3 times. Blank DMEM medium was added, and incubated for another 24 h. After that, PI (4 μM) was added and incubated for 1 h. The medium was removed, and the spheroids were gently washed with PBS (×1), which was then carefully transferred to a glass bottom dish. […]
smiles,measurement,setting,value
"[NH2][Pt]([NH2])([Cl])[Cl] [CDDP, cisplatin]",[GSH] after treatment,,11.81 ± 1.7 fmol/cell
same,[GSH] depletion,,8.3% and ~ 8.3%
same,Intracellular GSH level after treatment (Supplementary Table S2),individual samples,10.2784 and 11.5154 and 13.6407
same,Intracellular GSH level after treatment (Supplementary Table S2),mean of 3 samples,11.81
same,GSH-depletion,,8.30%
CC1(C)C(/C=C/C2=C3Oc4cc(OP(=O)(O)O)c(Cl)cc4C=C3CCC2)=[N+](CCCNC(=O)[C@@H](Cc2ccccc2)NC(=O)[C@@H](Cc2ccccc2)NC(=O)CCC(=O)[O][Pt]([NH2])([NH2])([OH])([Cl])[Cl])c2ccccc21 [P-CyPt],[GSH] after treatment,,8.07 ± 0.8 fmol/cell
same,[GSH] depletion,,37.3% and ~ 37.3%
same,Intracellular GSH level after treatment (Supplementary Table S2),individual samples,7.3478 and 7.9326 and 8.9304
same,Intracellular GSH level after treatment (Supplementary Table S2),mean of 3 samples,8.07
same,GSH-depletion,,37.30%
